Source: the NIST ThermoML archive (doi:10.1016/j.jct.2012.08.014)

Details: Liquid, Vibrating tube method

CCC(O)CO (stereo not drawn) [1,2-butanediol]
mass density [kg/m3]
Details | 278.15 K | 288.15 K | 298.15 K | 308.15 K | 318.15 K | 328.15 K | 338.15 K | 348.15 K | 358.15 K
100 kPa | 1013.4 | 1006.2 | 998.7 | 991.1 | 983.4 | 975.7 | 967.8 | 959.7 | 951.3
1000 kPa | 1013.7 | 1006.5 | 999.1 | 991.5 | 983.8 | 976.2 | 968.3 | 960.2 | 952
5000 kPa | 1015.7 | 1008.6 | 1001.2 | 993.7 | 986.1 | 978.6 | 970.7 | 962.8 | 954.6
10000 kPa | 1018.1 | 1011.1 | 1003.8 | 996.5 | 988.9 | 981.5 | 973.9 | 966.2 | 958.1
15000 kPa | 1020.5 | 1013.5 | 1006.3 | 999.1 | 991.7 | 984.4 | 976.8 | 969.2 | 961.4
20000 kPa | 1022.8 | 1015.9 | 1008.8 | 1001.6 | 994.3 | 987.2 | 979.8 | 972.2 | 964.5
25000 kPa | 1025 | 1018.2 | 1011.3 | 1004.1 | 997 | 989.9 | 982.6 | 975.2 | 967.5
30000 kPa | 1027.2 | 1020.5 | 1013.6 | 1006.5 | 999.4 | 992.5 | 985.3 | 978 | 970.5
35000 kPa | 1029.2 | 1022.7 | 1015.9 | 1008.9 | 1001.9 | 995.1 | 987.9 | 980.7 | 973.5
40000 kPa | 1031.2 | 1024.7 | 1018.2 | 1011.2 | 1004.4 | 997.6 | 990.5 | 983.4 | 976.2
45000 kPa | 1033.3 | 1026.7 | 1020.3 | 1013.5 | 1006.7 | 999.9 | 993.1 | 986.1 | 978.8
50000 kPa | 1035.3 | 1028.8 | 1022.5 | 1015.7 | 1009 | 1002.2 | 995.5 | 988.6 | 981.4
55000 kPa | 1037.3 | 1030.8 | 1024.5 | 1017.9 | 1011.3 | 1004.7 | 997.9 | 991.1 | 984
60000 kPa | 1039.2 | 1033 | 1026.7 | 1020 | 1013.5 | 1006.9 | 1000.3 | 993.4 | 986.5

CC(O)CO (stereo not drawn) [1,2-propanediol]
mass density [kg/m3]
Details | 278.15 K | 288.15 K | 298.15 K | 308.15 K | 318.15 K | 328.15 K | 338.15 K | 348.15 K | 358.15 K
100 kPa | 1047.1 | 1039.9 | 1032.5 | 1025.3 | 1017.7 | 1010 | 1002.2 | 994.1 | 985.8
1000 kPa | 1047.3 | 1040.2 | 1032.9 | 1025.5 | 1018 | 1010.3 | 1002.4 | 994.5 | 986.2
5000 kPa | 1049.2 | 1042.1 | 1034.8 | 1027.5 | 1020.2 | 1012.7 | 1004.8 | 996.9 | 988.8
10000 kPa | 1051.2 | 1044.4 | 1037.2 | 1030.1 | 1022.8 | 1015.4 | 1007.6 | 999.9 | 991.9
15000 kPa | 1053.4 | 1046.7 | 1039.6 | 1032.5 | 1025.4 | 1018 | 1010.4 | 1002.8 | 995
20000 kPa | 1055.5 | 1048.9 | 1041.9 | 1034.9 | 1027.9 | 1020.6 | 1013 | 1005.5 | 997.8
25000 kPa | 1057.6 | 1051.1 | 1044.1 | 1037.2 | 1030.3 | 1023.1 | 1015.6 | 1008.2 | 1000.6
30000 kPa | 1059.6 | 1053.2 | 1046.3 | 1039.5 | 1032.7 | 1025.6 | 1018.2 | 1010.9 | 1003.4
35000 kPa | 1061.6 | 1055.4 | 1048.4 | 1041.6 | 1035 | 1027.9 | 1020.7 | 1013.4 | 1006
40000 kPa | 1063.6 | 1057.4 | 1050.6 | 1043.8 | 1037.2 | 1030.3 | 1023.2 | 1016 | 1008.5
45000 kPa | 1065.6 | 1059.4 | 1052.5 | 1046 | 1039.4 | 1032.5 | 1025.5 | 1018.4 | 1011.2
50000 kPa | 1067.5 | 1061.4 | 1054.6 | 1048.1 | 1041.5 | 1034.7 | 1027.9 | 1020.9 | 1013.6
55000 kPa | 1069.3 | 1063.4 | 1056.6 | 1050.1 | 1043.6 | 1036.9 | 1030.2 | 1023.2 | 1016.1
60000 kPa | 1071.4 | 1065.3 | 1058.5 | 1052.2 | 1045.7 | 1039 | 1032.4 | 1025.6 | 1018.5

OCCO [1,2-ethanediol]
mass density [kg/m3]
Details | 278.15 K | 288.15 K | 298.15 K | 308.15 K | 318.15 K | 328.15 K | 338.15 K | 348.15 K | 358.15 K
100 kPa | 1122.4 | 1115.8 | 1109 | 1102.2 | 1095.2 | 1088.2 | 1080.9 | 1073.6 | 1066.1
1000 kPa | 1122.6 | 1116 | 1109.2 | 1102.4 | 1095.4 | 1088.3 | 1081.2 | 1073.9 | 1066.2
5000 kPa | 1124.1 | 1117.6 | 1110.9 | 1104.1 | 1097.1 | 1090.2 | 1083.1 | 1075.8 | 1068.2
10000 kPa | 1126 | 1119.5 | 1112.9 | 1106.1 | 1099.2 | 1092.3 | 1085.4 | 1078.1 | 1070.7
15000 kPa | 1127.8 | 1121.5 | 1114.9 | 1108.2 | 1101.3 | 1094.4 | 1087.6 | 1080.4 | 1073.1
20000 kPa | 1129.6 | 1123.3 | – | – | – | – | 1089.8 | 1082.7 | 1075.4
25000 kPa | 1131.4 | 1125.2 | 1118.7 | 1112.1 | 1105.3 | 1098.6 | 1091.9 | 1084.9 | 1077.8
30000 kPa | 1133.1 | 1127 | 1120.6 | 1114 | 1107.3 | 1100.6 | 1094 | 1087 | 1079.9
35000 kPa | 1134.8 | 1128.8 | 1122.4 | 1115.9 | 1109.3 | – | – | – | 1082.1
40000 kPa | 1136.6 | 1130.6 | 1124.3 | 1117.7 | 1111.2 | 1104.6 | 1097.9 | 1091.3 | 1084.3
45000 kPa | 1138.2 | 1132.3 | 1126.1 | 1119.6 | 1113.1 | 1106.5 | 1099.9 | 1093.4 | 1086.5
50000 kPa | 1139.9 | 1134.1 | 1127.8 | 1121.4 | 1115 | 1108.4 | 1101.9 | 1095.3 | –
55000 kPa | 1141.6 | 1135.7 | 1129.6 | 1123.2 | – | – | 1103.9 | 1097.3 | 1090.7
60000 kPa | 1143.3 | 1137.4 | 1131.3 | 1125 | 1118.6 | 1112.1 | 1105.8 | 1099.4 | 1092.7
